Converted amounts (≈) assume the structure as drawn. Read-outs that look alike come from different tables or passages of the source.
Assays:
[1] = test system: dopaminergic midbrain neurons (TH+); test: Neuroprotection of TH+ dopaminergic neurons in primary mouse midbrain cultures (spontaneous oxidative stress); format: cell-based; settings: Neuron, 168 h, cultured for 7 days, estimated graphically, read-out: EC50 (concentration protecting 50% of TH+ neurons)
Experimental: The inventors have further shown that compounds 1-H and 1-Me exert robust and concentration-dependent neuroprotective effects in a cell model in which the dopaminergic midbrain neurons, vulnerable in Parkinson's disease, degenerate further to a spontaneous oxidative stress of low intensity resulting from the presence of catalytic iron in the culture medium (Guerreiro et al, J Neurochem. 2009; 109(4):1118-28; Rousseau et al, Mol Pharmacol. 2013; 84(6):888-98).
Cultures were carried out using embryos of Swiss mice (Janvier LABS, Le Genest St. Isles, 30 France), collected at 13.5 days of gestation. The experimental procedures were performed in accordance with Directive 2010/63/EU of the Council of the European Union, using a protocol validated by the Charles Darwin ethics committee no. 5. The protocol is based on techniques reported previously (Rousseau et al, 2013, supra; Lavaur et al, J Neurochem. 2017; 142(1):14-28), using an additional step of trypsinization with an EDTA (2mM)-trypsin (0.05%) solution to facilitate the dissociation of brain tissue. The cells in suspension are distributed in 48-well multi-well dishes (Nunc; ThermoFisher Scientific), at a density of 50-80. 10^3 cells/cm^2, using Dulbecco's Modified Eagle's Medium/Nutrient Mixture F-12 Ham (Sigma-Aldrich), supplemented with 10% fetal calf serum. After 2 hours, the cultures are washed completely and placed in the presence of the same medium containing only 20 μg/ml of bovine insulin. The cultures are also treated with cytarabine (1.5 μM) on the first day in vitro and on the following day to reduce the number of glial cells in the cultures.
These cultures contain between 1 to 2% of dopaminergic neurons. […] Assessment of the number of dopaminergic neurons is done by counting TH^+ neurons with a Nikon Eclipse Ti-U inverted microscope.
The reference molecule used to prevent the loss of dopaminergic neurons is apotransferrin (APO; Sigma Aldrich; 100 μg/ml), a protein that chelates ferric iron in culture medium.

[2] = molecular target: human recombinant monomeric α-Synuclein (Homo sapiens, UniProt P37840); test: Thioflavin-T fluorescence assay of α-Synuclein amyloid aggregation; format: biochemical; settings: test compound 100 μM; 70 μM α-Synuclein; after 144 hours of shaking; percent of optimal response without tetracycline
Experimental: Aggregation studies were performed at 37° C. on samples containing 70 μM human recombinant monomeric α-Synuclein that were submitted to constant orbital agitation (Thermomixer Comfort, Eppendorf) at 600 rpm in the absence or in the presence of test compounds, at 100 μM. The formation of α-Synuclein aggregated species was monitored using the fluorescence probe Thioflavin-T (LeVine, Methods Enzymol. 1999, 309, 274-284; González-Lizárraga, et al. Sci Rep. 2017, 7, 41755), at a concentration of 25 μM. Changes in emission fluorescence were measured after 144 hrs of continuous shaking, at an excitation wavelength of 450 nm using a Horiba FluoroMax 4 spectrometer.

E. coli DH5α = test: Disc diffusion assay to assess antimicrobial activities (inhibition of bacterial growth); format: cell-based; settings: read-out: Minimal inhibitory concentration
Experimental: The antibacterial activities of test compounds were evaluated using the disc diffusion method (Kavanagh, Academic Press, Inc., New York, 1963, 125-140; Pomares et al, J Bacteriol. 2008, 30 190, 4328-4334). Briefly, filter-paper discs impregnated with 10 μl of two-fold serial dilutions of test compounds were placed onto LB solid medium Petri dishes. Then, aliquots (50 μl) of an E. coli DH5α culture in stationary phase were mixed with 3 ml of top agar (0.7% agar) and overlaid onto the plates. After overnight incubation at 37° C., the plates were examined for different degrees of inhibition. The antibacterial efficacy of a test compound was estimated by the Minimum Inhibitory Concentration (MIC) assay that determines the lowest concentration inhibiting visible growth of bacteria. Each test was performed in duplicate vs. the reference compound, doxycycline (“DOX”).

[3] = E. coli DH5α, disc diffusion, overnight incubation at 37° C., assayed twice
[4] = Escherichia coli, E. coli DH5α, disc diffusion, overnight incubation at 37° C., assayed twice

## C[C@@]1(O)c2c(Cl)ccc(O)c2C(=O)C2=C(O)C3C(=O)C(C(N)=O)=C(O)C[C@@H]3C[C@@H]21 (stereo partly drawn) [1-Me, 7-chloro-3,6,10,12-tetrahydroxy-6-methyl-1,11-dioxo-1,4,4α,5,5α, 6,11,12α-octahydrotetracene-2-carboxamide]
[1]
  EC50: 2010 nM
[2]
  residual Thioflavin-T fluorescence level: 13.5%
E. coli DH5α; [3]
  MIC: >2000 µM
E. coli DH5α; [4]
  MIC: > 2000 µM

## C[C@H]1c2cccc(O)c2C(=O)C2=C(O)[C@]3(O)C(=O)C(C(N)=O)=C(O)[C@@H](N(C)C)[C@@H]3[C@@H](O)[C@@H]21 [DOX, doxycycline, reference compound]
[1]
  EC50: 5200 nM
[2]
  residual Thioflavin-T fluorescence level: 21.1%
E. coli DH5α; [4]
  MIC: 62.5 µM (≈ 27.8 µg/mL)

## NC(=O)C1=C(O)C[C@@H]2C[C@H]3C(=C(O)C2C1=O)C(=O)c1c(O)ccc(Cl)c1[C@H]3O (stereo partly drawn) [1-H, 7-chloro-3,6,10,12-tetrahydroxy-1,11-dioxo-1,4,4α,5,5α,6,11,12α-octahydrotetracene-2-carboxamide]
[1]
  EC50: 810 nM
[2]
  residual Thioflavin-T fluorescence level: 1.5%
E. coli DH5α; [3]
  MIC: >2000 µM
E. coli DH5α; Escherichia coli
  MIC: > 2000 µM

Reference: patent US20230390309A1, “TETRACYCLINE DERIVATIVES FOR TREATING NEURODEGENERATIVE OR NEUROINFLAMMATORY DISEASES” (INSTITUT DU CERVEAU ET DE LA MOELLE EPINIERE, priority 2020, published 2023)
